{"source": "patent US20050282743A1", "about": "“Molecular interactions in cells” (Arbor Vita Corporation, priority 2001, published 2005)", "experiment_in_all_cases": "Apparent affinity (Kd) by titration of PL peptide in the G assay", "assay_type_in_all_cases": "binding", "key": {"[1]": {"biological_target": "T1, PDZ-domain polypeptide (GST/PDZ fusion protein) (Homo sapiens, UniProt Q12959)", "T1 construct": "made in house; host or cells: E. coli (DH5alpha, BL21 or JM109)", "T1 sequence (Q12959 whole entry, the tested form may be a part)": "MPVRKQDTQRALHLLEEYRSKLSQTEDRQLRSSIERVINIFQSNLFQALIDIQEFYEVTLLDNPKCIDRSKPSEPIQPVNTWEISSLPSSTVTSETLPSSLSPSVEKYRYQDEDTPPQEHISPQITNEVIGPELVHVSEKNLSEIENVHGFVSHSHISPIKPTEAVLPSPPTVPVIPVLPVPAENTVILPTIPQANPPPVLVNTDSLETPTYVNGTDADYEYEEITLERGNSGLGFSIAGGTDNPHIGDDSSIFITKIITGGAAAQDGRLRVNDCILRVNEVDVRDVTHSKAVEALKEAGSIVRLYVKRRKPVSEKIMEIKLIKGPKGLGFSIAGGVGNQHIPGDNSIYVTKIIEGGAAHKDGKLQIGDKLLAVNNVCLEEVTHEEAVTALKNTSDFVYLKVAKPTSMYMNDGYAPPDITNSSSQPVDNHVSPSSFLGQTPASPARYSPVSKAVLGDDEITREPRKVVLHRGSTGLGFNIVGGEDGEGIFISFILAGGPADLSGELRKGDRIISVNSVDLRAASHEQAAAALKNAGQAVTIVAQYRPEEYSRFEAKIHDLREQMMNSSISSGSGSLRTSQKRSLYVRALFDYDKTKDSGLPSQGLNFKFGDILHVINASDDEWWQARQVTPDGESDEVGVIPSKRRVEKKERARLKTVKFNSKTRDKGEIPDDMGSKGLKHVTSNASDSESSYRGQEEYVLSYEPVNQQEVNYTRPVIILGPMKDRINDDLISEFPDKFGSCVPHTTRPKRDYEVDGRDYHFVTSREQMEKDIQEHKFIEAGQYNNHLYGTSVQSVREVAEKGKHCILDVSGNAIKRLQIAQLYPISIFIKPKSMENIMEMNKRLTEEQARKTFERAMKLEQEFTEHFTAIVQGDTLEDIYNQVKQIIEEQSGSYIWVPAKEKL", "procedure,_shortened": "(§1)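 A fixed concentration of GST/PDZ fusion protein, 5 ug/ml by default, was mixed in solution with increasing labeled PL peptide (e.g. 0.1 uM-1 mM). Reaction times ranged from 10 minutes to 2 days at 4-37° C. Complexes were separated from free peptide and detected via the label as in the G assay, apparent affinity coming from the saturating concentration.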"}, "[2]": {"biological_target": "T2, PDZ-domain polypeptide (GST/PDZ fusion protein) (Homo sapiens, UniProt Q9NRD5)", "T2 construct": "made in house; host or cells: E. coli (DH5alpha, BL21 or JM109)", "T2 sequence (Q9NRD5 whole entry, the tested form may be a part)": "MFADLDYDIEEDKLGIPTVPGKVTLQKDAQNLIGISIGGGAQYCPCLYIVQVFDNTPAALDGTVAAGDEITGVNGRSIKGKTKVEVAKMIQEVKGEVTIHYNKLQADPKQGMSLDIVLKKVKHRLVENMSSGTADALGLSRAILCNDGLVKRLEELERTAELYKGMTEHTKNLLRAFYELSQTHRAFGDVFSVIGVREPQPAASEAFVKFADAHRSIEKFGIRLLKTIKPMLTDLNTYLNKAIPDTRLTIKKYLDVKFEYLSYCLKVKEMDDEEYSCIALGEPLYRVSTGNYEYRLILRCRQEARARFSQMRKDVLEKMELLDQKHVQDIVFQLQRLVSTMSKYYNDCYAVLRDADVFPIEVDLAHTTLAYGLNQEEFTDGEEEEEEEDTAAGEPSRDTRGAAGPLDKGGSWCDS", "details": "PDZ PICK1, PDZ Domain 1", "procedure,_shortened": "as §1"}, "[3]": {"biological_target": "T3, PDZ-domain polypeptide (GST/PDZ fusion protein) (Homo sapiens, UniProt Q8TEW0)", "T3 construct": "made in house; host or cells: E. coli (DH5alpha, BL21 or JM109)", "T3 sequence (Q8TEW0 whole entry, the tested form may be a part)": "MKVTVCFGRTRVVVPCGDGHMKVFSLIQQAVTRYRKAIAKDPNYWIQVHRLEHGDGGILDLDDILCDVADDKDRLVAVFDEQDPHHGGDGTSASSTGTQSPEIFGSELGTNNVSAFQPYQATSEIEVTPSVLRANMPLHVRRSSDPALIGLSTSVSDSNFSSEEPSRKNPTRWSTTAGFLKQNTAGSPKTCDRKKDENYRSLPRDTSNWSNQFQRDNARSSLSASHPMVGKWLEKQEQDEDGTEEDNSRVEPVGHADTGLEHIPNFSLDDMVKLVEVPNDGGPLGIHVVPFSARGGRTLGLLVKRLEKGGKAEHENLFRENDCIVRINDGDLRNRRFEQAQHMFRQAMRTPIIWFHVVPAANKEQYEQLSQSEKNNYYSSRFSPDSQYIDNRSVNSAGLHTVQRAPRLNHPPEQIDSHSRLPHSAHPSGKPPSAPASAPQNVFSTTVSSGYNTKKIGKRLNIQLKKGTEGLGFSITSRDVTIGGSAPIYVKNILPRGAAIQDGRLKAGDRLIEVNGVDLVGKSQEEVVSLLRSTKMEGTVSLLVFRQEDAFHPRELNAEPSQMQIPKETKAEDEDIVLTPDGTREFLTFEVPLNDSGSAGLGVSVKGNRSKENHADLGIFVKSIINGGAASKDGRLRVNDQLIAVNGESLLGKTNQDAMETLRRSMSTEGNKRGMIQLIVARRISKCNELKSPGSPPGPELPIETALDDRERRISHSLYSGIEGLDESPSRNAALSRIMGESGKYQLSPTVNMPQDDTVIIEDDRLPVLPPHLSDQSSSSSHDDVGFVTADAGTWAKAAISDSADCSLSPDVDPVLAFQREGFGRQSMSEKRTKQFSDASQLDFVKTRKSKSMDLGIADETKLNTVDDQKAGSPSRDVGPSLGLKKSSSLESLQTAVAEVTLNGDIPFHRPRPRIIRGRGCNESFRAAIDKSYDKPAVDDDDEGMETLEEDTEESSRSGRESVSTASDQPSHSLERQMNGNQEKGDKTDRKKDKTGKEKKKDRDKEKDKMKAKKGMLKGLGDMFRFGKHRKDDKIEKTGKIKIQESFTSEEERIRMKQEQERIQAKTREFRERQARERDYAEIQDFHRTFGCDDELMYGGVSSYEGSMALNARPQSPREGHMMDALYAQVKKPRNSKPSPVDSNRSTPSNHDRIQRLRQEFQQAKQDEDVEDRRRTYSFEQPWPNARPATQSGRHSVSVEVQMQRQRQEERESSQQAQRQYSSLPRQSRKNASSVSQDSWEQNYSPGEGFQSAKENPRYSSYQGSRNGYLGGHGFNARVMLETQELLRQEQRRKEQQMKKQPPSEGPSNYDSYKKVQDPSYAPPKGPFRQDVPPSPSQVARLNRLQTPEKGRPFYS", "details": "PDZ PAR3, PDZ Domain 3", "procedure,_shortened": "as §1"}, "[4]": {"biological_target": "T4, PDZ-domain polypeptide (GST/PDZ fusion protein) (Homo sapiens, UniProt Q15700)", "T4 construct": "made in house; host or cells: E. coli (DH5alpha, BL21 or JM109)", "T4 sequence (Q15700 whole entry, the tested form may be a part)": "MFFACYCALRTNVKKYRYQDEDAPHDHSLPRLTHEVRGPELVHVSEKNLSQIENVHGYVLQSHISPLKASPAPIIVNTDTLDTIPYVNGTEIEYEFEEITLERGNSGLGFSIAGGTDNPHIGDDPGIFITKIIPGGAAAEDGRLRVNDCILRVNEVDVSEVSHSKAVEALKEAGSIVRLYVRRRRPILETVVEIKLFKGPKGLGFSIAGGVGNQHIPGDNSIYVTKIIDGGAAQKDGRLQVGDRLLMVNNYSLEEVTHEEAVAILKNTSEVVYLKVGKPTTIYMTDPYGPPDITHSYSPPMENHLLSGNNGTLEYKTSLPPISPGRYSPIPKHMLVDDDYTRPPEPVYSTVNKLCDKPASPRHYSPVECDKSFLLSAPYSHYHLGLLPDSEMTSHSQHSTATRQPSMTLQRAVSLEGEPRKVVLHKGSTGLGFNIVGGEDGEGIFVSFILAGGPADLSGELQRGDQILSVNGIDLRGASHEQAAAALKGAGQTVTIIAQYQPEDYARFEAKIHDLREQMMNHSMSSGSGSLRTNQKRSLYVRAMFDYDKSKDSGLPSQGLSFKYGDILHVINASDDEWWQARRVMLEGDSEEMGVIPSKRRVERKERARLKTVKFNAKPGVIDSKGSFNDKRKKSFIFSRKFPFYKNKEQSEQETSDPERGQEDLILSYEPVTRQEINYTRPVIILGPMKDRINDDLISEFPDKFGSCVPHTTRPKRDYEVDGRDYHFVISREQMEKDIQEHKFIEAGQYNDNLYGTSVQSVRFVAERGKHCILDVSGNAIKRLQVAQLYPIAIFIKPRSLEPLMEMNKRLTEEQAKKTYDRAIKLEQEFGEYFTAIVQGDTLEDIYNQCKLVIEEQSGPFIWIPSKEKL", "details": "PDZ DLG2, PDZ Domain 2", "procedure,_shortened": "as §1"}, "[5]": {"biological_target": "T5, PDZ-domain polypeptide (GST/PDZ fusion protein) (Homo sapiens, UniProt P78352)", "T5 construct": "made in house; host or cells: E. coli (DH5alpha, BL21 or JM109)", "T5 sequence (P78352 whole entry, the tested form may be a part)": "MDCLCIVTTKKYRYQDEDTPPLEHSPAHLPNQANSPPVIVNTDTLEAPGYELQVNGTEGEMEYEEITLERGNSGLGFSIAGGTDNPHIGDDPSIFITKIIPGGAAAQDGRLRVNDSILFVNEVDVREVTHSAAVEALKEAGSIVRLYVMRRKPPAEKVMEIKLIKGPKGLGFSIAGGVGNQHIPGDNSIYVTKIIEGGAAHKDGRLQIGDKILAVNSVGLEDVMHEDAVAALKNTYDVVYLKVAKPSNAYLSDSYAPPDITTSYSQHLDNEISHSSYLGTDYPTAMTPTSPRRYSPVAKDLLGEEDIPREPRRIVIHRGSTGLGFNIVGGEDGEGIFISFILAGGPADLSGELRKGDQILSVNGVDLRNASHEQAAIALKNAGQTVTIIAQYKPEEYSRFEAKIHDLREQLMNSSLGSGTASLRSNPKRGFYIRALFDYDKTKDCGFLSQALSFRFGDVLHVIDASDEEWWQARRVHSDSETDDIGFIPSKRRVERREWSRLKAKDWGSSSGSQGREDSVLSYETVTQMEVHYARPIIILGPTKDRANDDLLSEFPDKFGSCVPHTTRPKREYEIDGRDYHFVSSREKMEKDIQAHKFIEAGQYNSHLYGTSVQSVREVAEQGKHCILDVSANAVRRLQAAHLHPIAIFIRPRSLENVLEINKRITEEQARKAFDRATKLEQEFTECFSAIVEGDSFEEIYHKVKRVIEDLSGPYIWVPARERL", "procedure,_shortened": "as §1"}, "[6]": {"details": "Peptide Optimal Conc (Kd by titration of the PL peptide)"}, "[7]": {"details": "read-out: Peptide Optimal Conc (Kd by titration of the PL peptide)"}}, "note": "Like-named read-outs stand apart in the source and are kept apart here. Peptide text beside a SMILES is read from it. * marks the point of attachment. Biotin = O=C1N[C@H]2[C@H](CS[C@H]2CCCCC(=O)*)N1", "data": [{"smiles": "CC[C@H](C)[C@H](NC(=O)[C@H](CCC(=O)O)NC(=O)[C@H](CO)NC(=O)[C@H](CCC(=O)O)NC(=O)[C@H](CCCNC(=N)N)NC(=O)[C@H](CCCNC(=N)N)NC(=O)[C@H](CC(C)C)NC(=O)[C@@H]1CCCN1C(=O)[C@H](CCCNC(=N)N)NC(=O)[C@@H]1CCCN1C(=O)[C@H](CCC(=O)O)NC(=O)[C@H](CC(C)C)NC(=O)[C@@H]1CCCN1C(=O)[C@@H](NC(=O)[C@H](CO)NC(=O)[C@H](C)NC(=O)[C@H](CCC(N)=O)NC(=O)[C@H](CC(N)=O)NC(=O)[C@H](Cc1c[nH]cn1)NC(=O)[C@H](CC(C)C)NC(=O)CCCC[C@@H]1SC[C@@H]2NC(=O)N[C@@H]21)C(C)C)C(=O)O", "note": "[Kir2.1 (inwardly rect. K+ channel)] (Biotin-LHNQASVPLEPRPLRRESEI-OH; C-terminus assumed)", "values": [{"measurement": "Kd", "setting": "[1]; PDZ DLG1, PDZ Domain 1, 2, titration of the PL peptide, read-out: Peptide Optimal Conc (Kd, dissociation constant)", "value": 5000, "unit": "nM"}]}, {"smiles": "CC[C@H](C)[C@H](NC(=O)[C@H](C)NC(=O)[C@H](CC(C)C)NC(=O)[C@H](Cc1c[nH]c2ccccc12)NC(=O)[C@H](Cc1c[nH]cn1)NC(=O)[C@H](CCC(N)=O)NC(=O)[C@H](CC(C)C)NC(=O)[C@H](CCC(N)=O)NC(=O)[C@H](Cc1ccccc1)NC(=O)[C@H](CCC(N)=O)NC(=O)[C@H](CCCNC(=N)N)NC(=O)[C@@H](NC(=O)[C@H](CC(=O)O)NC(=O)[C@H](CCCNC(=N)N)NC(=O)[C@H](CCC(N)=O)NC(=O)[C@H](C)NC(=O)[C@@H](NC(=O)[C@H](CC(C)C)NC(=O)[C@H](Cc1c[nH]cn1)NC(=O)[C@H](Cc1c[nH]cn1)NC(=O)CCCC[C@@H]1SC[C@@H]2NC(=O)N[C@@H]21)C(C)C)[C@@H](C)CC)C(=O)O", "note": "[noradrenaline transporter] (Biotin-HHLVAQRDIRQFQLQHWLAI-OH; C-terminus assumed)", "values": [{"measurement": "Kd", "setting": "[2]; [6]", "value": 1000, "unit": "nM"}, {"measurement": "Kd", "setting": "[3]; [6]", "value": 600, "unit": "nM"}]}, {"smiles": "CC[C@H](C)[C@H](NC(=O)[C@H](CCCCN)NC(=O)[C@@H](NC(=O)[C@H](CO)NC(=O)[C@@H]1CCCN1C(=O)[C@H](Cc1ccccc1)NC(=O)[C@@H](NC(=O)[C@@H](NC(=O)[C@H](CCCNC(=N)N)NC(=O)[C@H](CCC(=O)O)NC(=O)[C@H](CC(C)C)NC(=O)[C@H](CC(C)C)NC(=O)[C@H](CC(C)C)NC(=O)[C@@H](NC(=O)CNC(=O)[C@@H](NC(=O)CCCC[C@@H]1SC[C@@H]2NC(=O)N[C@@H]21)C(C)C)[C@@H](C)O)C(C)C)[C@@H](C)CC)C(C)C)C(=O)N[C@@H](C)C(=O)N[C@H](C(=O)N[C@@H](CC(C)C)C(=O)N[C@H](C(=O)O)C(C)C)[C@@H](C)O", "note": "[Adenovirus E4 Type9]", "values": [{"measurement": "Kd", "setting": "[4]; Protein Optimal Conc 0.5", "value": 50, "unit": "nM"}, {"measurement": "Kd", "setting": "[1]; PDZ DLG1, PDZ Domain 1, Protein Optimal Conc 0.5, read-out: Peptide Optimal Conc (Kd by titration of the PL peptide)", "value": 100, "unit": "nM"}, {"measurement": "Kd", "setting": "[1]; PDZ DLG1, PDZ Domain 2, Protein Optimal Conc 0.3, read-out: Peptide Optimal Conc (Kd by titration of the PL peptide)", "value": 30, "unit": "nM"}, {"measurement": "Kd", "setting": "[5]; PDZ PSD95, PDZ Domain 1, Protein Optimal Conc 5, read-out: Peptide Optimal Conc (Kd by titration of the PL peptide)", "value": 100, "unit": "nM"}]}, {"smiles": "CC[C@H](C)[C@H](NC(=O)[C@H](Cc1ccc(O)cc1)NC(=O)[C@H](CC(C)C)NC(=O)[C@H](CCC(N)=O)NC(=O)[C@H](Cc1c[nH]cn1)NC(=O)[C@H](CO)NC(=O)[C@H](C)NC(=O)[C@H](CC(C)C)NC(=O)[C@@H](NC(=O)[C@H](CC(=O)O)NC(=O)[C@H](CCSC)NC(=O)[C@H](Cc1ccccc1)NC(=O)[C@@H]1CCCN1C(=O)[C@H](CCCNC(=N)N)NC(=O)[C@@H](NC(=O)[C@H](CC(C)C)NC(=O)[C@H](CC(N)=O)NC(=O)[C@H](CC(=O)O)NC(=O)[C@@H](NC(=O)[C@H](CO)NC(=O)CCCC[C@@H]1SC[C@@H]2NC(=O)N[C@@H]21)[C@@H](C)O)C(C)C)[C@@H](C)O)C(=O)O", "note": "[presenilin-2] (Biotin-STDNLVRPFMDTLASHQLYI-OH; C-terminus assumed)", "values": [{"measurement": "Kd", "setting": "[3]; titration of the PL peptide, read-out: Peptide Optimal Conc (Kd, dissociation constant)", "value": 2000, "unit": "nM"}]}, {"smiles": "CC(C)C[C@H](NC(=O)[C@H](Cc1c[nH]c2ccccc12)NC(=O)[C@H](Cc1c[nH]cn1)NC(=O)[C@H](CCCNC(=N)N)NC(=O)[C@H](CC(C)C)NC(=O)[C@@H](NC(=O)[C@H](Cc1ccccc1)NC(=O)[C@H](CCC(N)=O)NC(=O)[C@H](CCCNC(=N)N)NC(=O)[C@@H](NC(=O)[C@H](CCC(=O)O)NC(=O)CNC(=O)[C@H](CCCNC(=N)N)NC(=O)[C@H](CC(=O)O)NC(=O)[C@@H](NC(=O)[C@H](CC(C)C)NC(=O)[C@H](CCC(=O)O)NC(=O)[C@H](CCCNC(=N)N)NC(=O)CCCC[C@@H]1SC[C@@H]2NC(=O)N[C@@H]21)C(C)C)C(C)C)[C@@H](C)O)C(=O)N[C@@H](CCCCN)C(=O)N[C@H](C(=O)O)C(C)C", "note": "[Dopamine transporter (Na+-dependent)] (Biotin-RELVDRGEVRQFTLRHWLKV-OH; C-terminus assumed)", "values": [{"measurement": "Kd", "setting": "[2]; [7]", "value": 900, "unit": "nM"}]}, {"smiles": "CC[C@H](C)[C@H](NC(=O)[C@H](CO)NC(=O)[C@@H](NC(=O)[C@H](Cc1ccccc1)NC(=O)[C@H](CO)NC(=O)CCCC[C@@H]1SC[C@@H]2NC(=O)N[C@@H]21)[C@@H](C)O)C(=O)N[C@@H](CC(C)C)C(=O)N[C@H](C(=O)N[C@@H](CS)C(=O)N[C@@H](Cc1c[nH]cn1)C(=O)N[C@@H](CCC(N)=O)C(=O)N[C@@H](CCCNC(=N)N)C(=O)N[C@@H](CCCNC(=N)N)C(=O)N[C@H](C(=O)N[C@@H](CCC(N)=O)C(=O)N[C@@H](CCCNC(=N)N)C(=O)N[C@@H](CCCCN)C(=O)N[C@@H](CCC(=O)O)C(=O)N[C@H](C(=O)N[C@H](C(=O)N[C@@H](C)C(=O)O)C(C)C)[C@@H](C)O)[C@@H](C)O)[C@@H](C)O", "note": "[GluR5-2 (rat)]", "values": [{"measurement": "Kd", "setting": "[5]; PDZ PSD95, PDZ Domain 3, titration of the PL peptide, read-out: Peptide Optimal Conc (Kd, dissociation constant)", "value": 100, "unit": "nM"}]}, {"smiles": "CSCC[C@H](NC(=O)[C@H](C)NC(=O)[C@H](CCCNC(=N)N)NC(=O)CNC(=O)[C@@H](NC(=O)[C@H](Cc1c[nH]c2ccccc12)NC(=O)[C@H](CCCNC(=N)N)NC(=O)CNC(=O)CCCC[C@@H]1SC[C@@H]2NC(=O)N[C@@H]21)[C@@H](C)O)C(=O)N[C@@H](CO)C(=O)N[C@@H](C)C(=O)N[C@@H](Cc1c[nH]c2ccccc12)C(=O)N[C@@H](CCCCN)C(=O)N1CCC[C@H]1C(=O)N[C@H](C(=O)N[C@@H](CCCNC(=N)N)C(=O)N[C@@H](CCCNC(=N)N)C(=O)N[C@@H](CCC(=O)O)C(=O)N[C@H](C(=O)N[C@@H](CCC(=O)O)C(=O)N[C@H](C(=O)O)C(C)C)[C@@H](C)O)[C@@H](C)O", "note": "[HPV E6 #35 (modified)] (Biotin-GRWTGRAMSAWKPTRRETEV-OH; C-terminus assumed)", "values": [{"measurement": "Kd", "setting": "[4]; [7]", "value": 200, "unit": "nM"}]}]}
